Conditions: Liquid, Closed cell (Static) method

FCC(F)(F)F [1,1,1,2-tetrafluoroethane]
Conditions | vapor or sublimation pressure [kPa]
243.14 K | 84.1
245.14 K | 92.4
247.14 K | 101.4
249.15 K | 111.1
251.16 K | 121.4
253.15 K | 132.5
255.14 K | 144.3
257.16 K | 157.1
259.17 K | 170.6
261.16 K | 185
263.14 K | 200.2
265.13 K | 216.4
267.13 K | 233.7
269.14 K | 252.1
271.14 K | 271.6
273.13 K | 292.1
275.13 K | 313.9
277.16 K | 337.2
279.16 K | 361.5
281.16 K | 387.3
283.17 K | 414.3
285.14 K | 442.1
287.15 K | 472.3
289.14 K | 503.4
291.14 K | 536.3
293.14 K | 570.9

CCC [propane]
Conditions | vapor or sublimation pressure [kPa]
233.22 K | 111.3
235.21 K | 121.3
237.18 K | 131.7
239.2 K | 143.2
241.22 K | 155.4
243.21 K | 168.2
245.26 K | 182.1
247.13 K | 195.6
249.14 K | 211.1
251.14 K | 227.4
253.14 K | 244.5
255.14 K | 262.5
257.13 K | 281.5
259.15 K | 301.8
261.12 K | 322.7
263.15 K | 345.3
265.14 K | 368.6
267.14 K | 393.2
269.14 K | 419
271.14 K | 446.1
273.14 K | 474.3
275.14 K | 503.9
277.14 K | 535
279.15 K | 567.4
281.15 K | 601.4
283.15 K | 636.7
285.15 K | 673.5
287.14 K | 711.8
289.15 K | 752
291.16 K | 793.7
293.15 K | 836.8
